According to patent publication US8440718B2, “Modulation of inflammation related to columnar epithelia” (The Brigham and Women's Hospital, Inc., priority 1991, dated 2013):
Values joined by “and” are separate entries in the source; they are usually repeats but may differ in a detail not shown here. Equal entries are not always repeated.

Columns and labels:
[1] = biological target: lipoxin binding sites on human PMN; settings: reported; cited from earlier work
[2] = system: human PMN migration across T84 epithelial monolayers; experiment: PMN transepithelial migration assay, apical-to-basolateral direction, fMLP gradient, myeloperoxidase readout; assay type: cell-based
Experimental: (§1) Cell culture Approximately 350 epithelial monolayers were used for these studies. T84 intestinal epithelial cells (passages 70-95) were grown and maintained as confluent monolayers on collagen coated permeable support. Monolayers were grown on 0.33 cm^2 ring-supported polycarbonate filters (Costar Corp., Cambridge, Mass.) and utilized 6-14 days after plating as described in Example 2. Transepithelial resistance to passive ion flow was measured as described in Parkos C. A., et al. (1991). J. Clin. Invest. 88: 1605-1612); and Parkos C. A., et al. (1992). J. Cell. Biol. 117: 757-764). Inverted monolayers used to study migration of PMN in the basolateral-to-apical direction were constructed as described in Parkos C. A., et al. (1991). J. Clin. Invest. 88:1605-1612).
(§2) Migration assay: The PMN transepithelial migration assay has been detailed in Nash S., et al. (1987). J. Clin. Invest. 80: 1104-1113; Nash S., et al. (1991). J. Clin. Invest 87: 1474-1477); Parkos C. A., et al. (1991). J. Clin. Invest. 88: 1605-1612); and Parkos C. A., et al. (1992). J. Cell. Biol. 117: 757-764. Briefly, human PMN were isolated from normal human volunteers and suspended in modified HBSS (without Ca^2+ and Mg^2+, with 10 mM Hepes, pH 7.4, Sigma) at a concentration of 5×10^7/ml. Prior to addition of PMN, T84 monolayers were extensively rinsed in HBSS to remove residual serum components. Migration assays were performed by the addition of PMN (40 μl) to HBSS ([…]) in the upper chambers after chemoattractant (1 μM fMLP in HBSS) was added to the opposing (lower) chambers. Unless otherwise indicated, PMN were not washed free of LXA4 prior to addition to monolayers, and therefore, a five-fold dilution of lipoxin was present during the migration assay. For apical-to-basolateral migration experiments, PMN (2×10^6) were added at time 0. Migration in the basolateral-to-apical direction, while qualitatively similar, is substantially more efficient than in the apical-to-basolateral direction. (Parkos C. A., et al. (1991). J. Clin. Invest. 88: 1605-1612). Therefore, 5-fold fewer PMN (4×10^5) were added when migration proceeded in the basolateral-to-apical direction in order that baseline migration signals be approximately equivalent in both directions. (Parkos C. A., et al. (1991). J. Clin. Invest. 88: 1605-1612). Migration was allowed to proceed for 120 minutes, unless otherwise noted. All PMN transepithelial migration experiments were performed in a 37° C. room to ensure that epithelial monolayers, solutions, plasticware, etc., were maintained at uniform 37° C. temperature.
(§3) Migration was quantitated by assaying for the PMN azurophilic granule marker myeloperoxidase (MPO) as described previously (Parkos C. A., et al. (1991). J. Clin. Invest 88: 1605-1612). Following each migration assay, non-adherent PMN were extensively washed from the surface of the monolayer and PMN cell equivalents (PMN CE), estimated from a standard curve, were assessed as the number of PMN's associated with the monolayer, the number which had completely traversed the monolayer (ie. across the monolayer into the reservoir bath), as well as the total number of transmigrating PMN (the sum of monolayer and reservoir-associated PMN).
(§4) Data Presentation: Individual experiments were performed using large numbers of uniform groups of monolayers and PMN from individual blood donors on individual days. PMN isolation was restricted to five different blood donors (repetitive donations) over the course of these studies. Myeloperoxidase assay data were compared by two-factor analysis of variance (ANOVA) or by comparison of means using Student's t-Test PMN migration results are represented as PMN CE derived from a daily standard PMN dilution curve. Monolayer-associated PMN are represented as the number of PMN CE per monolayer and reservoir-associated PMN (ie. PMN which had completely traversed the monolayer into the lower chamber) are represented as the number of PMN CE/ml (total volume of 1 ml). […]

[3] = system: human PMN migration across T84 epithelial monolayers; experiment: Effect of inhibitors on baseline and LXA4-elicited PMN transepithelial migration, apical-to-basolateral; assay type: cell-based; settings: for LXA4-elicited increase in fMLP driven PMN migration over control: LXA4 10 nM
[4] = system: human PMN migration across T84 epithelial monolayers; experiment: PMN chemotactic capacity toward LXA4 placed in lower chamber, apical-to-basolateral; assay type: cell-based; settings: compared to 1 μM fMLP
Experimental: as §2, §3
To investigate whether LXA4 could serve to stimulate PMN migration in this assay system, dilutions of LXA4 in the range of 0.01-10 nM were placed in the lower chamber of migration wells. Untreated PMN's were added to the upper chamber and assessed for chemotactic capacity toward LXA4 in the apical-to-basolateral direction. […]

[5] = system: human PMN migration across inverted T84 epithelial monolayers; experiment: PMN transepithelial migration assay, basolateral-to-apical direction (inverted monolayers), fMLP gradient, myeloperoxidase readout; assay type: cell-based
Experimental: as §1, §2, §3, §4

[6] = 10 nM LXA4, 30 min pre-exposure
[7] = PMN pre-exposed 10 nM LXA4 15 min 37°C, 1 μM fMLP, 120 min

## CCCCC[C@H](O)/C=C/C=C\C=C\C=C\[C@@H](O)[C@@H](O)CCCC(=O)O (relative stereo) [LXA4, (5S, 6R, 15S)-trihydroxy-7,9,13-trans-11-cis-eicosatetraenoic acid]
[1]
  Kd: 0.5 nM
[2]; 0.001 nM LXA4, 15 min pre-exposure 37°C
  PMN in lower reservoirs: 13.71±4.14 ×10^4 PMN CE/ml
[2]; 0.01 nM LXA4, 15 min pre-exposure 37°C
  PMN in lower reservoirs: 14.11±3.01 ×10^4 PMN CE/ml
[2]; 0.1 nM LXA4, 15 min pre-exposure 37°C
  PMN in lower reservoirs: 15.43±4.65 ×10^4 PMN CE/ml
[2]; 1 nM LXA4, 15 min pre-exposure 37°C
  PMN in lower reservoirs: 19.96±4.83 ×10^4 PMN CE/ml
[2]; 10 nM LXA4 15 min, PMN then washed twice in HBSS
  total PMN migration after LXA4 washout: 14.5±0.3 ×10^4 PMN CE/ml
[2]; 10 nM LXA4 15 min, harvested 45 min after addition of PMN
  total PMN migration (total MPO activity): 1.51±0.12 ×10^4 PMN CE/ml
[2]; 10 nM LXA4 15 min vs vehicle control
  fold increase in the total number of transmigrating PMN: ~2 fold
[2]; 10 nM LXA4, 0 min pre-exposure
  total PMN migration: 16.61±3.56 ×10^4 total PMN CE/ml
[2]; 10 nM LXA4, 45 and 60 minutes pre-exposure
  total PMN migration relative to vehicle control: returned to vehicle control values
[2]; 10 nM LXA4, 5 min pre-exposure
  increase in total PMN migration compared to vehicle controls: 50%
  reservoir-associated PMN: 18.02±3.35 ×10^4 PMN CE/ml
[2]; 10 nM LXA4, 15 min pre-exposure
  increase in total PMN migration compared to vehicle controls: 80% and 68%
[2]; [6]
  increase in total PMN migration compared to vehicle controls: 51%
  reservoir-associated PMN: 19.64±3.54 ×10^4 PMN CE/ml
[2]; [7]
  monolayer-associated PMN: 6.93±1.77 ×10^4 PMN CE/monolayer and 7.55±0.71 ×10^4 PMN CE/monolayer
  reservoir-associated PMN (completely traversed the monolayer): 11.02±2.91 ×10^4 PMN CE/ml and 19.96±3.18 ×10^4 PMN CE/ml and 20.38±4.83 ×10^4 PMN CE/ml
[2]; PMN pre-exposed 10 nM LXA4 15 min, LXA4 present, 1 μM fMLP, 120 min
  total number of transmigrating PMN: 18.6±1.0 ×10^4 PMN CE/ml and 17.95±2.15 ×10^4 PMN CE/ml
[3]; PMN pre-exposed to indomethacin 50 μM
  LXA4-elicited increase in fMLP driven PMN migration over control: 61±11%
[3]; without indomethacin
  LXA4-elicited increase in fMLP driven PMN migration over control: 54±7%
[3]; LXA4 10 μM (so in the source), pertussis toxin experiment
  LXA4-elicited increase in PMN migration compared to control: 46±3%
[4]; 0.01 nM LXA4 in lower chamber
  PMN migration toward LXA4, % of fMLP-induced PMN migration: 6±2.1%
[4]; 0.1 nM LXA4 in lower chamber
  PMN migration toward LXA4, % of fMLP-induced PMN migration: 9±3.6%
[4]; 1.0 nM LXA4 in lower chamber
  PMN migration toward LXA4, % of fMLP-induced PMN migration: 6±2.4%
[4]; 10 nM LXA4 in lower chamber
  PMN migration toward LXA4, % of fMLP-induced PMN migration: 12±1.4%
[5]; 10 nM, 15 min pre-incubation 37°C, 1 μM fMLP, 120 min
  inhibition of PMN migration, basolateral-to-apical (total MPO activity): 28±4% and 25%
[5]; PMN pre-exposed 1 nM LXA4 15 min
  transmigrated (reservoir) PMN, basolateral-to-apical: 6.99±1.33 ×10^4 PMN/ml
[5]; PMN pre-exposed 10 nM LXA4 15 min
  monolayer-associated PMN, basolateral-to-apical: 2.00±0.31
